Test results published in ChEMBL document CHEMBL4699477, “Tricyclic sulfones as potent, selective and efficacious RORγt inverse agonists - Exploring C6 and C8 SAR using late-stage functionalization” (Bioorg Med Chem Lett, 2020).

Key:
[1] = Fraction unbound in mouse plasma; assay type: ADME, cell-free
[2] = Volume of distribution at steady state in cynomolgus monkey at 1 mg/kg, iv; assay type: ADME, organism-based, Macaca fascicularis; details: in vivo, read-out: Vdss
[3] = molecular target: Cytochrome P450 2C19 (Homo sapiens, UniProt P33261); experiment: Inhibition of recombinant CYP2C19 (unknown origin); assay type: ADME
[4] = Oral bioavailability in rat at 4 mg/kg; assay type: ADME, organism-based; details: in vivo
[5] = molecular target: Cytochrome P450 2D6 (Homo sapiens, UniProt P10635); experiment: Inhibition of recombinant CYP2D6 (unknown origin); assay type: ADME
[6] = Metabolic stability in rat liver microsomes assessed as half life; assay type: ADME, Microsome
[7] = Total AUC in dog at 2 mg/kg, po; assay type: ADME, organism-based, Canis lupus familiaris; set-up: time AUCmax, route oral, dose 2 mg/kg; details: in vivo
[8] = Oral bioavailability in BALB/c mouse at 4 mg/kg; assay type: ADME, organism-based; details: in vivo
[9] = Volume of distribution at steady state in dog at 1 mg/kg, iv; assay type: ADME, organism-based, Canis lupus familiaris; details: in vivo, read-out: Vdss
[10] = Volume of distribution at steady state in BALB/c mouse at 2 mg/kg, iv; assay type: ADME, organism-based; details: in vivo, read-out: Vdss
[11] = Total AUC in BALB/c mouse at 4 mg/kg, po; assay type: ADME, organism-based; set-up: time AUCmax, route oral, dose 4 mg/kg; details: in vivo
[12] = Total AUC in rat at 2 mg/kg, iv; assay type: ADME, organism-based; set-up: time AUCmax, route intravenous, dose 2 mg/kg; details: in vivo
[13] = molecular target: T1, Nuclear receptor ROR-gamma (Mus musculus, UniProt P51450); experiment: Inverse agonist activity at RORgammat in mouse Th17 cells; assay type: cell-based
T1 sequence (P51450 whole entry): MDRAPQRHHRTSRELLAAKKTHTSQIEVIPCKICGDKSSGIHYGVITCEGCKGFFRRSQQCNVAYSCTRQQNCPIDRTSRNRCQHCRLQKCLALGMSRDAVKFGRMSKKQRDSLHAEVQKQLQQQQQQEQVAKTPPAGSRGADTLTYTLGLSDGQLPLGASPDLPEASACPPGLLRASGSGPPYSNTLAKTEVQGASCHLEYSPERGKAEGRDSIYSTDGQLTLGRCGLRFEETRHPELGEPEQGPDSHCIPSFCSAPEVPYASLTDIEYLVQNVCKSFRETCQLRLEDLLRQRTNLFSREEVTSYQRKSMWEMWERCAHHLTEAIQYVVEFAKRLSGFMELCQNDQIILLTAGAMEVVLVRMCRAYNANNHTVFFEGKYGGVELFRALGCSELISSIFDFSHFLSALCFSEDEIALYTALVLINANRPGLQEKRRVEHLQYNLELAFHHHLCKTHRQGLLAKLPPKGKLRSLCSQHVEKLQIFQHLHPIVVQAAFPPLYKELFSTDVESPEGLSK

[14] = Total AUC in rat at 4 mg/kg, po; assay type: ADME, organism-based; set-up: time AUCmax, route oral, dose 4 mg/kg; details: in vivo
[15] = Total AUC in cynomolgus monkey at 1 mg/kg, iv; assay type: ADME, organism-based, Macaca fascicularis; set-up: time AUCmax, route intravenous, dose 1 mg/kg; details: in vivo
[16] = Oral bioavailability in dog at 2 mg/kg; assay type: ADME, organism-based, Canis lupus familiaris; details: in vivo
[17] = Metabolic stability in cynomolgous monkey liver microsomes assessed as half life; assay type: ADME, Macaca fascicularis, Microsome; details: cynomolgus monkey
[18] = molecular target: T2, Oxysterols receptor LXR-beta (Homo sapiens, UniProt P55055); experiment: Inverse agonist activity of LXRbeta (unknown origin)
T2 sequence (P55055 whole entry): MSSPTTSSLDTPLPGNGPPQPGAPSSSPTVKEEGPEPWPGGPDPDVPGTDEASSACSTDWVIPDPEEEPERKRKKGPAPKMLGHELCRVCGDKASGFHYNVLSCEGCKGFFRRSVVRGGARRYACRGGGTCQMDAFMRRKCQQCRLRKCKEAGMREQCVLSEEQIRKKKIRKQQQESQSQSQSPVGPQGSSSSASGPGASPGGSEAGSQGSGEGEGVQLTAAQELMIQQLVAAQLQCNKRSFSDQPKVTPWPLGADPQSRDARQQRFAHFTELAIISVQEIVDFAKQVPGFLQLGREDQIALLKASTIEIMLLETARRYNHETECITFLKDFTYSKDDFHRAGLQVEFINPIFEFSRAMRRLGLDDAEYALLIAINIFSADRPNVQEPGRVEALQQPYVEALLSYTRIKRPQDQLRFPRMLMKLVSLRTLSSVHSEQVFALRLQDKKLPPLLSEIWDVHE

[19] = Metabolic stability in dog liver microsomes assessed as half life; assay type: ADME, Canis lupus familiaris, Microsome
[20] = Half life in BALB/c mouse at 2 mg/kg, iv; assay type: ADME, organism-based; details: in vivo
[21] = molecular target: T3, Cytochrome P450 1A2 (Homo sapiens, UniProt P05177); experiment: Inhibition of recombinant CYP1A2 (unknown origin); assay type: ADME
T3 sequence (P05177 whole entry): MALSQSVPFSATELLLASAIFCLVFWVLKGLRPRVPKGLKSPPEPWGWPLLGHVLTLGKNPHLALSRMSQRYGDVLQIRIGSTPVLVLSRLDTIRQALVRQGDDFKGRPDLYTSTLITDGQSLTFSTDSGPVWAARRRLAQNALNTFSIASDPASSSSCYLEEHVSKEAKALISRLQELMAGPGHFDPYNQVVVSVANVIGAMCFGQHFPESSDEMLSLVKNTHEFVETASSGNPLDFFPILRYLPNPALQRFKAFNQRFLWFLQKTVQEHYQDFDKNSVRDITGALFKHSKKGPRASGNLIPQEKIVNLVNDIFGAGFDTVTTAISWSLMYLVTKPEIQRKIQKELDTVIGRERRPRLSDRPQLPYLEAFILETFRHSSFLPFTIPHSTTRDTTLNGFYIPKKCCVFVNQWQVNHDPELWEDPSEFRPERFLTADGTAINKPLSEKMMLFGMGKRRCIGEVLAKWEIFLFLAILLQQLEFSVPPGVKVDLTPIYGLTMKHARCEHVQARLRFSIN

Sequence of Cytochrome P450 2C19 (P33261 whole entry): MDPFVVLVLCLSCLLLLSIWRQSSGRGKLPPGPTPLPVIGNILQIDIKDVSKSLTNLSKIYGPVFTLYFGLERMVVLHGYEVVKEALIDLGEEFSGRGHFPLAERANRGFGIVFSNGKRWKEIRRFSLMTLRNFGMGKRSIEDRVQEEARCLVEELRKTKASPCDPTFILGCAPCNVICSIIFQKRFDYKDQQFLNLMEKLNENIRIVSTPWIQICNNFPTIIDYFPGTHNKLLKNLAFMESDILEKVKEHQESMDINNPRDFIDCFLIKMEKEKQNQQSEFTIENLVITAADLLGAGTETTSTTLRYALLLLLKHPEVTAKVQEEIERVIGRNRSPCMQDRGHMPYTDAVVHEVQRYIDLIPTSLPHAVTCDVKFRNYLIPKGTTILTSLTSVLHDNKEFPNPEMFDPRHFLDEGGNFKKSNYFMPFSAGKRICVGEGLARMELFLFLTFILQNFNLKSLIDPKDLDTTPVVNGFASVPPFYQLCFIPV
Sequence of Cytochrome P450 2D6 (P10635 whole entry): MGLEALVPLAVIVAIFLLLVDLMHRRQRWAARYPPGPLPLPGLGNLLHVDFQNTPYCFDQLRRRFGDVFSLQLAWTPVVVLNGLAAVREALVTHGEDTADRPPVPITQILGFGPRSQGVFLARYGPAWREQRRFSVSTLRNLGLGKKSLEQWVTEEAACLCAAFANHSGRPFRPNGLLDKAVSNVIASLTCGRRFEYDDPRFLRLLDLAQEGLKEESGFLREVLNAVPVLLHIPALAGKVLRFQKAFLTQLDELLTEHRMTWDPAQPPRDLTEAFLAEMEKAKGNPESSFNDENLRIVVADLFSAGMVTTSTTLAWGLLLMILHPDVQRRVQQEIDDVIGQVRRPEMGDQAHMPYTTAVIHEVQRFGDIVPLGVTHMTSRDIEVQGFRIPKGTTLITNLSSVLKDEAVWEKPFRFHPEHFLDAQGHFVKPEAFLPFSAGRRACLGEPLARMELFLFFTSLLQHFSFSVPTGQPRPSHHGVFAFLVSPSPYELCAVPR

Structure (SMILES): C[C@H]1C[C@H](C(=O)O)CC[C@H]1C(=O)N1CC[C@@]2(S(=O)(=O)c3ccccc3)c3cc(F)c(C(F)(C(F)(F)F)C(F)(F)F)cc3CC[C@@H]12
- fraction unbound [1]: 0.016
- Vd [2]: 1.2 L/kg
- IC50 [3]: > 20 µM
- bioavailability [4]: 100%
- IC50 [5]: > 20 µM
- half-life [6]: > 2 h
- AUC [7]: 144 µM·h
- bioavailability [8]: 98%
- Vd [9]: 0.7 L/kg
- Vd [10]: 1.6 L/kg
- AUC [11]: 39 µM·h
- AUC [12]: 20 µM·h
- EC50 [13]: 0.002 µM
- AUC [14]: 44 µM·h
- AUC [15]: 23 µM·h
- bioavailability [16]: 90%
- half-life [17]: > 2 h
- EC50 [18]: > 7.5 µM
- half-life [19]: > 2 h
- half-life [20]: 7.7 h
- IC50 [21]: > 20 µM
